The values that follow come from patent US7268113B2, “Long lasting growth hormone releasing factor derivatives” (ConjuChem Biotechnologies Inc., priority 2002, dated 2007).

Broadly, the half-life is how long it takes for the measured level to halve.

Data set [1] can be described thus: Pharmacokinetic studies in male Sprague-Dawley rats (plasma RIA). It counts as in vivo, rat. The method, then:
Pharmacokinetic studies were carried out on the compounds of Examples 5 and 6. Each compound was injected subcutaneously (1 μmol/kg) or intravenously (100 nmol/kg) to male Sprague-Dawley rats. Serial blood samples were taken at pre-dose, 5, 30 and 60 minutes and 2, 4, 8, 24, 48, 72 and 96 hours post-agent administration. Plasma were harvested and frozen until analysis by radioimmunoassay (RIA). A commercial polyclonal antibody raised against human native GRF (1–29) was used to detect the compounds. The assay sensitivity was 300 to 10 000 pM. Consequently, some samples had to be diluted for analysis. The results of the pharmacokinetic profiles appear in FIG. 9. As it can be seen, the compound of Example 5, i.e., the native peptide, disappears very rapidly. In fact, the compound of Example 5, whether administered subcutaneously or intrasvenously, could not be detected after 60 minutes post administration. This is consistent with results in Sprague-Dawley rats reported in the literature for GRF (1–29) and other analogues thereof, regarding the terminal half-life thereof and the percentage of bioavailability (SC/IV) (see for example Peptides, 9:207–209, and J. Endocr., 107:R5–R8.

For data set [2] the following is noted: in vivo; cited from earlier work.

Where two headings read alike, the source gives them in different places. Where a SMILES comes first, the peptide text is derived from it. [ ]: non-standard residue; d: D form. The star is where a group is joined. Propanoyl(3-maleimido) = O=C1C=CC(=O)N1CCC(=O)*

Turning to `CC[C@H](C)[C@H](NC(=O)[C@H](C)NC(=O)[C@H](CC(=O)O)NC(=O)[C@@H](C)NC(=O)[C@@H](N)Cc1ccc(O)cc1)C(=O)N[C@@H](Cc1ccccc1)C(=O)N[C@H](C(=O)N[C@@H](CCC(N)=O)C(=O)N[C@@H](CO)C(=O)N[C@@H](Cc1ccc(O)cc1)C(=O)N[C@@H](CCCNC(=N)N)C(=O)N[C@@H](CCCCN)C(=O)N[C@H](C(=O)N[C@@H](CC(C)C)C(=O)N[C@@H](C)C(=O)N[C@@H](CCC(N)=O)C(=O)N[C@@H](CC(C)C)C(=O)N[C@@H](CO)C(=O)N[C@@H](C)C(=O)N[C@@H](CCCNC(=N)N)C(=O)N[C@@H](CCCCN)C(=O)N[C@@H](CC(C)C)C(=O)N[C@@H](CC(C)C)C(=O)N[C@@H](CCC(N)=O)C(=O)N[C@@H](CC(=O)O)C(=O)N[C@H](C(=O)N[C@@H](CC(C)C)C(=O)N[C@@H](CO)C(=O)N[C@@H](CCCNC(=N)N)C(=O)N[C@@H](CCCCNC(=O)CCN1C(=O)C=CC1=O)C(N)=O)[C@@H](C)CC)C(C)C)[C@@H](C)O` [Example 6] (H-Y[dA]DAIFTQSYRKVLAQLSARKLLQDILSRK(Propanoyl(3-maleimido))-NH2), the λ worked out at 0.037 in data set [1] (intravenous administration, 100 nmol/kg, male Sprague-Dawley rats) and 0.027 in data set [1] (subcutaneous administration, 1 μmol/kg, male Sprague-Dawley rats). For the same compound, the half-life in data set [1] (rat, in vivo, sc, 1 umol/kg, subcutaneous administration, 1 μmol/kg, male Sprague-Dawley rats, read-out: Terminal half-life (converted)) was 25.8 ± 2.1 h. In addition, in data set [1] (subcutaneous (1 μmol/kg) or intravenous (100 nmol/kg), plasma RIA, FIG. 9), the “time post administration at which compound remains detectable in plasma” value is no less than 96 h.
In the case of “GRF 1–29: N-terminal 1–29 fragment of growth hormone releasing factor; commercial GRF(1–29) from Polypeptide Laboratories used as comparator”, the half-life in data set [2] is 0.167 to 0.217 h.
